From patent publication US20200061062A1, “INHIBITORS OF HUMAN PHOSPHATIDYLINOSITOL 3-KINASE DELTA” (ICOS Corporation, priority 2000, published 2020)

Key:
[1] = biological target: T1, PI3Kα (Homo sapiens, UniProt P42336); experiment: Biochemical assay of PI3K potency and selectivity using 20 μM ATP, Alpha; conditions: for Alpha/Delta Ratio / IC50: 20 μM ATP; for Alpha/Delta Ratio: ratio of IC50 values, > = hypothetical ratio with 100 μM substituted for the missing IC50; for remaining activity at 100 µM: read-out: percent activity remaining at 100 μM, 20 μM ATP, 100 μM compound did not inhibit by at least 50%; for IC50: read-out: Alpha IC50
T1 construct: His tag (pFastbac HTb vector) (N); FLAG; made in house; host or cells: Sf21 insect cells (baculovirus)
Procedure, shortened: (§1)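 Lipid-kinase radiometric assay with γ-[32P]ATP (20 μM ATP) on PIP2/PS liposomes in 20 mM HEPES pH 7.4; the 3× substrate mix held […] and 6 μM liposomes.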

[2] = biological target: T2, PI3Kβ (Homo sapiens, UniProt P42338); experiment: Biochemical assay of PI3K potency and selectivity using 20 μM ATP, Beta; conditions: 20 μM ATP; for Beta/Delta Ratio: ratio of IC50 values, > = hypothetical ratio with 100 μM substituted for the missing IC50; for IC50: read-out: Beta IC50
T2 construct: His tag (pFastbac HTa vector) (N); FLAG (N); made in house; host or cells: Sf21 insect cells (baculovirus)
Procedure, shortened: as §1

[3] = biological target: T1, PI3Kα; experiment: Biochemical assay using 200 μM ATP, Alpha
Description: (§2) PI3Kδ catalyzes a phosphotransfer from γ-[^32P]ATP to PIP2/PS liposomes at the D3′ position of the PIP2 lipid inositol ring. This reaction is MgCl2 dependent and is quenched in high molarity potassium phosphate buffer pH 8.0 containing 30 mM EDTA. […] The reaction products (and all unlabelled products) are transferred to a 96-well, prewetted PVDF filter plate, filtered, and washed in high molarity potassium phosphate. Scintillant is added to the dried wells and the incorporated radioactivity is quantitated.
(§3) This dilution established a final concentration of 200 μM ATP in the reaction volume. The reaction was stopped with 150 μL quench buffer (1.0 M potassium phosphate pH 8.0, 30 mM EDTA). A portion of the quenched solution (180 μL) was then transferred to a PVDF filter plate (Millipore # MAIP NOB prewetted with sequential 200 μL washes of 100% methanol, water, and finally 1.0 M potassium phosphate pH 8.0 wash buffer).
(§4) The PVDF filter plate was aspirated under moderate vacuum (2-5 mm Hg), washed with 5×200 μL of wash buffer, and then dried by aspiration. The filter was subsequently blotted, allowed to air dry completely, and inserted into a Wallac counting cassette with 50 μL of Ecoscint scintillation cocktail added per well.
(§5) Subsequent selectivity assays were done similarly using the same 3× substrate stocks except they contained 0.05 mCi/mL γ[^32P]ATP and 3 mM PIP2. Subsequent selectivity assays also used the same 3× enzyme stocks, except they now contained 3 nM of any given PI3K isoform.
(§6) For all selectivity assays, the test compounds were weighed out and dissolved into 10-50 mM stocks in 100% DMSO (depending on their respective solubilities) and stored at −20° C. […] From these dilutions, 20 μL was added into the assay wells alongside water blanks used for the enzyme (positive) control and the no enzyme (background) control.
(§7) This selectivity protocol is identical to that described above, except the 3× stock ATP concentration was 600 μM.

[4] = biological target: T2, PI3Kβ; experiment: Biochemical assay using 200 μM ATP, Beta
[5] = biological target: T3, PI3Kγ (Homo sapiens, UniProt P48736); experiment: Biochemical assay using 200 μM ATP, Gamma
T3 construct: His tag (pFastbac HTb vector) (N); FLAG (N); made in house; host or cells: Sf21 insect cells (baculovirus)
Description: as §2, §3, §4, §5, §6, §7

[6] = tested on: human neutrophils; experiment: Elastase exocytosis from neutrophils (fMLP-induced); format: cell-based; conditions: neutrophil (PMN) elastase release
Description: Aliquots (8 mL) of heparinized blood from healthy volunteers were layered on 3 mL cushions of 7.3% FICOLL® (Sigma, St. Louis, Mo.) and 15.4% HYPAQUE® (Sigma) and centrifuged at 900 rpm for 30 min at room temperature in a table top centrifuge (Beckman). The neutrophil-rich band just above the FICOLL®-HYPAQUE® cushion was collected and washed with Hanks' balanced salt solution (HBSS) containing 0.1% gelatin. Residual erythrocytes were removed by hypotonic lysis with 0.2% NaCl. The neutrophil preparation was washed twice with HBSS containing 0.1% gelatin and used immediately.
In addition to superoxide generation, activated neutrophils also respond by releasing several proteases that are responsible for the destruction of tissues and cartilage during inflammation. As an indication of protease release, the effect of D-000 on elastase exocytosis was measured. Elastase exocytosis was quantitated by modification of the procedure described by Ossanna et al. (J Clin Invest, 77:1939-1951 (1986)), as follows. Purified human neutrophils (0.2×10^6) (treated with either DMSO or a serial dilution of D-000 in DMSO) were stimulated with fMLP in PBS containing 0.01 mg/mL cytochalasin B, 1.0 μM sodium azide (NaN3), 5 μg/mL L-methionine and 1 μM fMLP for 90 min at 37° C. in a 96-well plate. At the end of the incubation period, the plate was centrifuged for 5 min at 1000 rpm, and 90 μL of the supernatant was transferred to 10 μL of 10 mM solution of an elastase substrate peptide, MeO-suc-Ala-Ala-Pro-Val-pNA, wherein MeO-suc=methoxy-succinyl; pNA=p-nitroanilide (Calbiochem, San Diego, Calif.). Absorbance at 410 nm was monitored for 2 hr in a 96-well plate reader. To measure the relative amounts of elastase excytosed, all absorbance values were normalized to the values without any inhibitor. […] Inhibition was half-maximal at a concentration of about 2-3 μM D-000.
Using the methods described in Examples 3-5, above, compounds of the invention were tested for inhibitory activity and potency in assays of stimulated B and T cell proliferation, neutrophil (PMN) migration, and neutrophil (PMN) elastase release. In Table 4, the values shown are effective concentrations of the compound (EC50; μM). Where no value is given, no assay was performed.

[7] = tested on: Murine splenocytes (Balb/c); experiment: B cell proliferation in response to cell surface IgM stimulation; format: cell-based; conditions: Mus musculus, Splenocyte; stimulated B cell proliferation; read-out: Mouse BCR Stim (EC50)
Procedure, shortened: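 Balb/c splenocytes (2×10^5/well, 10% FBS/RPMI) preincubated 30-60 min with inhibitor, then stimulated with goat F(ab′)2 anti-mouse IgM μ-chain at 25 μg/mL final. Cultured 3 days at 37° C., [^3H]-thymidine pulsed for final 4 h; incorporation counted as CPM. Values are EC50 (μM).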

[8] = tested on: T cell proliferation; experiment: Stimulated T cell proliferation (Mouse TCE Stim, Table 4); format: cell-based; conditions: stimulated T cell proliferation, read-out: Mouse TCE Stim (EC50)
[9] = biological target: T4, PI3Kδ (Homo sapiens, UniProt O00329, S253N); experiment: Biochemical assay using 200 μM ATP, Delta;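 note: radiometric filter-binding assay: PI3Kδ transfers ³²P from γ-[³²P]ATP onto PIP2/PS liposomes, counted by scintillation, enzyme-only wells as positive control, no-enzyme wells as background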
Description: as §2, §3, §4, §5, §6, §7

[10] = biological target: T4, PI3Kδ; experiment: Biochemical assay of PI3K potency and selectivity using 20 μM ATP, Delta; set-up: His tag (pFastbac HTb vector) (N); FLAG; made in house; host or cells: Sf21 insect cells (baculovirus); conditions: 20 μM ATP; read-out: Delta IC50
Procedure, shortened: as §1

[11] = biological target: T3, PI3Kγ; experiment: Biochemical assay of PI3K potency and selectivity using 20 μM ATP, Gamma
Text: Recombinant baculoviruses containing the above clones were generated using manufacturer's recommended protocol (Life Technologies). Baculoviruses expressing His-tagged p110α, p110γ, or p110δ catalytic subunit and p85 subunit were coinfected into Sf21 insect cells. To enrich the heterodimeric enzyme complex, an excess amount of baculovirus expressing p85 subunit was infected, and the His-tagged p110 catalytic subunit complexed with p85 was purified on nickel affinity column. […] In an alternate approach, p101 can be cloned into baculovirus, to permit coexpression with its preferred binding partner p110γ. […]

T1 sequence (P42336 whole entry): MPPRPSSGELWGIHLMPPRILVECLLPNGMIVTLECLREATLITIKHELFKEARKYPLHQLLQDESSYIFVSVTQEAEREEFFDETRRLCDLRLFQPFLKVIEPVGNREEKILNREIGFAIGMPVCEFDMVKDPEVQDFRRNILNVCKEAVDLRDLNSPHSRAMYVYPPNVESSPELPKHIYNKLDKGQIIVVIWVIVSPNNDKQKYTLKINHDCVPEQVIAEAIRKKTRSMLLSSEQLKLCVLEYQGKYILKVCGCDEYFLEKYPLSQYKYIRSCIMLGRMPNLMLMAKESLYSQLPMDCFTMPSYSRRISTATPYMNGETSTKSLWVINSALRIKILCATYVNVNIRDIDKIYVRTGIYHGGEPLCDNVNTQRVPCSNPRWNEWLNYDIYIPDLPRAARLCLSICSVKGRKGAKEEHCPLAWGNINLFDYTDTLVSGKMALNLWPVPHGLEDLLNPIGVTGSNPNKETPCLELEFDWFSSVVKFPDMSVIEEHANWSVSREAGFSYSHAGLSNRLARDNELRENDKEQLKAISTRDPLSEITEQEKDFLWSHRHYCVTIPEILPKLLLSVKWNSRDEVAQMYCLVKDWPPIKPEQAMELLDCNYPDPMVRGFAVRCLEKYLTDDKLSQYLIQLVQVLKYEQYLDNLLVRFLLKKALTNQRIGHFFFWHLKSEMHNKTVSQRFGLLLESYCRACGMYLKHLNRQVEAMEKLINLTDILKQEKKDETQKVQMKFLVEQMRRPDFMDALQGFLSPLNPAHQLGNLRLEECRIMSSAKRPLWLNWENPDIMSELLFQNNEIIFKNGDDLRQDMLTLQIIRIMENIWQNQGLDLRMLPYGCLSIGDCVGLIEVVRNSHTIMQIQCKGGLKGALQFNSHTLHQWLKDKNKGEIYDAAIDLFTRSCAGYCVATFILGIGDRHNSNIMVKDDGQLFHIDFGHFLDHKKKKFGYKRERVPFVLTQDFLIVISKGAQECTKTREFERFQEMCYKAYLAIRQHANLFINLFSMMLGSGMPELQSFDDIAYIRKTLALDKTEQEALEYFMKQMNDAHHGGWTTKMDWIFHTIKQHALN
T1 sequence (P27986 whole entry partner): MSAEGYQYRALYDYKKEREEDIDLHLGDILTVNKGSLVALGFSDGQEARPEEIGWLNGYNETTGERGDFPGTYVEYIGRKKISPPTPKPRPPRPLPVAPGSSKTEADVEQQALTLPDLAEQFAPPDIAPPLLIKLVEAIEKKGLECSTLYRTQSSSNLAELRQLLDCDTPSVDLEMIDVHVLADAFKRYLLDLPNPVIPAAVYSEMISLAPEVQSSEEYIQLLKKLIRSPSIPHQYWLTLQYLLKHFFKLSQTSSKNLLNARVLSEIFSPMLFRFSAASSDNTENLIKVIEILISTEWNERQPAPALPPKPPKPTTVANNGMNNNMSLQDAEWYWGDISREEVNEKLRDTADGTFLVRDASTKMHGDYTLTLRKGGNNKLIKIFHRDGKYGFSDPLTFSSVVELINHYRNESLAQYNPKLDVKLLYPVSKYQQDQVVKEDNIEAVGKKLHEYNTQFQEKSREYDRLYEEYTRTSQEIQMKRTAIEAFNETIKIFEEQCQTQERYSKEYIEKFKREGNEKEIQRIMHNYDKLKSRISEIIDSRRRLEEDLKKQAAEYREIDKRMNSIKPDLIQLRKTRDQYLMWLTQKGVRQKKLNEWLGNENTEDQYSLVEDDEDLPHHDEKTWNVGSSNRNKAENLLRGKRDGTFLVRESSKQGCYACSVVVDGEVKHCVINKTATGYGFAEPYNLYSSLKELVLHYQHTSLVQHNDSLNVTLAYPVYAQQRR
T2 sequence (P42338 whole entry): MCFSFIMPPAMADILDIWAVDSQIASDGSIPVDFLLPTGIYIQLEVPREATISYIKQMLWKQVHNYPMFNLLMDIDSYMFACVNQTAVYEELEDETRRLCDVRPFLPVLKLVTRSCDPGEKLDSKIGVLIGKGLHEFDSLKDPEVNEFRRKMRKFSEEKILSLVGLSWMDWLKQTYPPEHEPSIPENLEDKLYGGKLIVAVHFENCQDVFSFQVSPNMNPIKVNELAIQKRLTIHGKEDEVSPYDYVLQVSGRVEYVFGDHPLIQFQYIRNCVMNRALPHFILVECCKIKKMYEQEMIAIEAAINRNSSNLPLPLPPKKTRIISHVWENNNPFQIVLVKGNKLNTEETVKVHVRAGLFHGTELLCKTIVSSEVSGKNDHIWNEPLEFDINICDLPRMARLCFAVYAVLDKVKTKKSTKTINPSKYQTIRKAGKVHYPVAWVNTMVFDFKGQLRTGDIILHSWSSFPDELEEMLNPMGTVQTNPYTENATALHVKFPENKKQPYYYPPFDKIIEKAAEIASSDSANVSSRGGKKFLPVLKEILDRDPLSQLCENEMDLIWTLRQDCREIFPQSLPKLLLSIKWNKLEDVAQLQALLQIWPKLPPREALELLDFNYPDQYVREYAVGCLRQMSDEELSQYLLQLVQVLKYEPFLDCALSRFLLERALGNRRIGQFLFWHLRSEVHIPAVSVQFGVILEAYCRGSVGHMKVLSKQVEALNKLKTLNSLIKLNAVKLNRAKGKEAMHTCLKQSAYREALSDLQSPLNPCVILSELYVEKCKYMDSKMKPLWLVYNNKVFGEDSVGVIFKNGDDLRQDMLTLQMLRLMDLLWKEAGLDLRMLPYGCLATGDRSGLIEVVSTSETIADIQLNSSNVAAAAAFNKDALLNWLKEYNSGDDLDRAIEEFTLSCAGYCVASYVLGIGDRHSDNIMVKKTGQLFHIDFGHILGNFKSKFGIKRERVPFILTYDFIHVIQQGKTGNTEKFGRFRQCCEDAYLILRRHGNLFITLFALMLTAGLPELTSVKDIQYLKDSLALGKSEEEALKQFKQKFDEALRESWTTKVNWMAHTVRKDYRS
T2 sequence (P27986 whole entry partner): as the sequence (P27986 whole entry partner) above
T4 sequence (O00329 whole entry S253N): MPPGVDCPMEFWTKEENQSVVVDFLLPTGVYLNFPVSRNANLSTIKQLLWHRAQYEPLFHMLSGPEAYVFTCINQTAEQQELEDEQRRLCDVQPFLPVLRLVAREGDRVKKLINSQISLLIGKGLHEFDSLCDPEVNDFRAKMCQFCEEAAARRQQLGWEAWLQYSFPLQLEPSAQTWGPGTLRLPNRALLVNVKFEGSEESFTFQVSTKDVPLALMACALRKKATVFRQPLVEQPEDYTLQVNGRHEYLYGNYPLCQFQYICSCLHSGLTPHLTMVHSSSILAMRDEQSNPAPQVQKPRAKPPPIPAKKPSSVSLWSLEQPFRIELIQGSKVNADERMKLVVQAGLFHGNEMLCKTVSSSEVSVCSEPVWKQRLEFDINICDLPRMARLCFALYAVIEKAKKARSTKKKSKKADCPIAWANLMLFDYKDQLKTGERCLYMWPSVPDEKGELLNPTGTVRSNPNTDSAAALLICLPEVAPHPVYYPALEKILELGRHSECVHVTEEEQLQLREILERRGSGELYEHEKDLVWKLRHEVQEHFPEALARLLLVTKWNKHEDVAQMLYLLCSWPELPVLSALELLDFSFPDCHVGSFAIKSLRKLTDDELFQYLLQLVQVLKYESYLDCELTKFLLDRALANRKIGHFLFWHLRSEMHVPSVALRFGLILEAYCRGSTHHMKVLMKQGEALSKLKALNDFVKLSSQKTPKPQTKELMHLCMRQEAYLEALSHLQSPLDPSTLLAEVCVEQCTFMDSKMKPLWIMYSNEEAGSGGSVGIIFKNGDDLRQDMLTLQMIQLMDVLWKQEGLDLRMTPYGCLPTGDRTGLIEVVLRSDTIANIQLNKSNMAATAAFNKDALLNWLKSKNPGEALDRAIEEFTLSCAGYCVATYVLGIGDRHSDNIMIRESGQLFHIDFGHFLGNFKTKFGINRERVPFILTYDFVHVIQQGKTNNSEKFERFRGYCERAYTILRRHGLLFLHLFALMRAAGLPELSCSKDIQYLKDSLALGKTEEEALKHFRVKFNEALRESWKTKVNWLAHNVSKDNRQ
T4 sequence (P27986 whole entry partner): as the sequence (P27986 whole entry partner) above
T3 sequence (P48736 whole entry): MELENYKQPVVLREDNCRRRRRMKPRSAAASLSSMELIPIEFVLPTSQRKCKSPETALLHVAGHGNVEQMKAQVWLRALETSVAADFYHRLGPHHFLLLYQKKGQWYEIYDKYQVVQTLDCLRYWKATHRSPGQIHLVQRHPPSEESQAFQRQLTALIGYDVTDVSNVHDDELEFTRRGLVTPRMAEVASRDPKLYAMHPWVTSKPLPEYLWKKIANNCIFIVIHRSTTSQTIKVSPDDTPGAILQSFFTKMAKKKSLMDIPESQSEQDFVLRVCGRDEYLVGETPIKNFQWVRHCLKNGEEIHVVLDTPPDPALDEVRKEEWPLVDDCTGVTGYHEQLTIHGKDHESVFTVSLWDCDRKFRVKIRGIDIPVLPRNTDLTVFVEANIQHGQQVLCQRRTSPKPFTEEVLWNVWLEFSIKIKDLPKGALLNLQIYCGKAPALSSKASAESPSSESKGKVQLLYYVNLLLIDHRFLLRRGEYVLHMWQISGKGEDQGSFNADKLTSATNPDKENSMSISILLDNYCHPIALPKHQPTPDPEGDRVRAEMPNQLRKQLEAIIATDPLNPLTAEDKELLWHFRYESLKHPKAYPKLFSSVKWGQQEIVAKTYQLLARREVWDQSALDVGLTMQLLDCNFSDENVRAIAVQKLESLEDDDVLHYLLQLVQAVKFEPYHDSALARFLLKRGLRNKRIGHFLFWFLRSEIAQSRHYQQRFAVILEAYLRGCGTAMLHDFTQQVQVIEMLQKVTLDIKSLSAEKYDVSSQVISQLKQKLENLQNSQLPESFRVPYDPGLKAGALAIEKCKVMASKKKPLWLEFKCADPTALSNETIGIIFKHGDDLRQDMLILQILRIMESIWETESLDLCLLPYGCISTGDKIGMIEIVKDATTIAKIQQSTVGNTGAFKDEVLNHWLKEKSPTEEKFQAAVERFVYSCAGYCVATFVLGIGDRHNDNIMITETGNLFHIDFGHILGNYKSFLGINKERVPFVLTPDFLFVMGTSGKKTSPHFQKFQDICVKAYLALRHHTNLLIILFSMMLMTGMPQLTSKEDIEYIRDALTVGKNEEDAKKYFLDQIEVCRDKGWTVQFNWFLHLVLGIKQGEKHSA

| remaining activity at 100 µM ([2]; read-out: Beta: percent activity remaining at 100 μM, 100 μM compound did not inhibit by at least 50%) [%] | Gamma/Delta Ratio ([11]; ratio of IC50 values) | SMILES | Alpha/Delta Ratio [1] | remaining activity at 100 µM [1] [%] | Beta/Delta Ratio [2] | IC50 [2] [µM] | Alpha/Delta Ratio [3] | Beta/Delta Ratio [4] | Gamma/Delta Ratio [5] | EC50 [6] [nM] | EC50 [7] [nM] | EC50 [8] [µM] | melting point | IC50 [9] [nM] | IC50 [10] [nM] | IC50 [4] [µM] | IC50 [5] [µM] | IC50 [1] [µM] | IC50 [11] [µM] | IC50 [3] [µM] |
| --- | --- | --- | --- | --- | --- | --- | --- | --- | --- | --- | --- | --- | --- | --- | --- | --- | --- | --- | --- | --- |
| – | – | Nc1ncnc2c1ncn2Cc1nc2cccc(F)c2c(=O)n1-c1ccccc1Cl [Compound D-005, 2-(6-Aminopurin-9-ylmethyl)-3-(2-chlorophenyl)-5-fluoro-3H-quinazolin-4-one] | >121 | 89 | 56 | 46 | 20 | 16 | 17 | 4300 ± 1000 | 700 ± 100 | 3.9 | 159 to 172 °C (dec.) | 11000 | 800 | – | – | – | – | – |
| – | – | Nc1ncnc2c1ncn2Cc1nc2cccc(Cl)c2c(=O)n1-c1ccccc1Cl [Compound D-006, 2-(6-Aminopurin-o-ylmethyl)-5-chloro-3-(2-chlorophenyl)-3H-quinazolin-4-one] | >652 | 78 | 38 | 6 | 226 | 48 | 95 | 300 ± 100 | 200 ± 100 | 5.3 | 245.7 to 246 °C | 920 ± 100 | 150 | 44 ± 5 | 87 ± 33 | – | – | – |
| – | – | Cc1cccc2nc(Cn3cnc4c(N)ncnc43)n(-c3ccccc3Cl)c(=O)c12 [Compound D-007, 2-(6-Aminopurin-9-ylmethyl)-3-(2-chlorophenyl)-5-methyl-3H-quinazolin-4-one] | >619 | 82 | 188 | 30 | 252 | 99 | 121 | 400 | 300 ± 100 | 4.2 | 190.7 to 190.9 °C | 730 ± 200 | 160 | 72 ± 12 | 88 ± 4 | – | – | – |
| – | – | O=c1c2cc3ccccc3cc2nc(CSc2ncnc3[nH]cnc23)n1-c1ccccc1Cl [Compound D-019, 3-(2-Chlorophenyl)-2-(9H-purin-6-ylsulfanylmethyl)-3H-benzo[g]quinazolin-4-one] | 10 | – | 15 | 105 | 7 | 3 | 1 | – | 900 ± 10 | 0.9 | 247.8 to 254.4 °C (dec.) | 30000 | 7000 | 100 | 33 | 67 | – | – |
| – | – | O=c1c2cccc(Cl)c2nc(CSc2ncnc3[nH]cnc23)n1-c1ccccc1Cl [Compound D-021, 8-Chloro-3-(2-chlorophenyl)-2-(9H-purin-6-ylsulfanylmethyl)-3H-quinazolin-4-one] | 62 | – | 68 | 110 | – | – | – | – | 1800 | 3.5 | 211.9 to 212.7 °C | – | 1600 | – | – | 100 | – | – |
| – | – | O=c1c2ccc(F)cc2nc(CSc2ncnc3[nH]cnc23)n1-c1ccccc1Cl [Compound D-022, 3-(2-Chlorophenyl)-7-fluoro-2-(9H-purin-6-ylsulfanylmethyl)-3H-quinazolin-4-one] | – | – | – | 110 | – | – | – | – | 1800 | 2.3 | 151.4 to 154.2 °C | 4200 | 800 | – | – | – | 40 | – |
| – | – | Cc1cccc2nc(CSc3ncnc4[nH]cnc34)n(-c3ccccc3C(C)C)c(=O)c12 [Compound D-035, 3-(2-isopropylphenyl)-5-methyl-2-(9H-purin-6-ylsulfanylmethyl)-3H-quinazolin-4-one] | 199 | – | 65 | 3 | 193 | 69 | 14 | 300 ± 100 | 200 ± 100 | 2.9 ± 0.7 | – | 490 ± 100 | 50 | 34 ± 6 | 6.8 ± 1 | 9 | – | 95 ± 6 |
| 63 | 100 | CCCCn1c(CSc2ncnc3[nH]cnc23)nc2ccccc2c1=O [Compound D-038, 3-butyl-2-(9H-purin-6-ylsulfanylmethyl)-3H-quinazolin-4-one] | >167 | 77 | >170 | – | 77 | 82 | 31 | 5000 | 1400 ± 100 | 2.9 | – | 1800 | 600 | – | 55 | – | 60 | – |
| – | – | Cc1cccc2nc(Cn3cnc4c(N)ncnc43)n(-c3ccccc3F)c(=O)c12 [Compound D-048, 2-(6-aminopurin-9-ylmethyl)-3-(2-fluorophenyl)-5-methyl-3H-quinazolin-4-one] | 449 | – | 90 | 14 | 67 | 70 | 91 | 900 ± 200 | 400 ± 200 | 5 | – | 1400 ± 900 | 160 | 95 ± 7 | 123 ± 40 | 70 | – | 90 ± 57 |
| – | – | Nc1ncnc2c1ncn2Cc1nc2cccc(F)c2c(=O)n1Cc1ccccc1 [Compound D-049, 2-(6-aminopurin-9-ylmethyl)-3-benzyl-5-fluoro-3H-quinazolin-4-one] | >100 | 110 | 30 | 30 | – | – | – | 5000 | 2000 | 6.3 | – | – | 1000 | – | – | – | – | – |
